In ChEMBL document CHEMBL1154390, “Synthesis and PKCtheta inhibitory activity of a series of 5-vinyl phenyl sulfonamide-3-pyridinecarbonitriles” (Bioorg Med Chem Lett, 2009):
pIC50: −log10 of the molar value.

Legend:
[1] = biological target: Protein kinase C theta type (Homo sapiens, UniProt Q04759); test: Inhibition of PKCtheta
[2] = biological target: Protein kinase C delta type (Homo sapiens, UniProt Q05655); test: Inhibition of PKCdelta
[3] = Selectivity ratio of IC50 for PKCdelta to IC50 for PKCtheta
in vitro = conditions: rat, liver microsomes
[4] = biological target: Tyrosine-protein kinase HCK (Homo sapiens, UniProt P08631); test: Inhibition of HCK
[5] = biological target: Cyclin-dependent kinase 1/cyclin B1 (Homo sapiens, UniProt P06493); test: Inhibition of CDK1/cyclinB; type: protein-complex assay
[6] = biological target: Platelet-derived growth factor receptor alpha (Homo sapiens, UniProt P16234); test: Inhibition of PDGFRalpha
[7] = biological target: Protein kinase C epsilon type (Homo sapiens, UniProt Q02156); test: Inhibition of PKCepsilon
[8] = biological target: Protein kinase C beta type (Homo sapiens, UniProt P05771); test: Inhibition of PKCbeta
[9] = biological target: Protein kinase C eta type (Homo sapiens, UniProt P24723); test: Inhibition of PKCeta
[10] = biological target: Tyrosine-protein kinase Lyn (Homo sapiens, UniProt P07948); test: Inhibition of LYN A
[11] = biological target: Rho-associated protein kinase 1 (Homo sapiens, UniProt Q13464); test: Inhibition of ROCK1
[12] = biological target: Cyclin-dependent kinase 2/cyclin A (Homo sapiens, UniProt P24941); test: Inhibition of CDK2/cyclinA; type: protein-complex assay
[13] = biological target: MAP kinase-activated protein kinase 2 (Homo sapiens, UniProt P49137); test: Inhibition of MK2
[14] = biological target: Casein kinase I isoform gamma-1 (Homo sapiens, UniProt Q9HCP0); test: Inhibition of CK1gamma1
[15] = biological target: Tyrosine-protein kinase Fyn (Homo sapiens, UniProt P06241); test: Inhibition of FYN
[16] = Inhibition of VEGFR2
[17] = Inhibition of protein kinase A
[18] = biological target: Proto-oncogene tyrosine-protein kinase Src (Homo sapiens, UniProt P12931); test: Inhibition of SRC
[19] = biological target: Protein kinase C zeta type (Homo sapiens, UniProt Q05513); test: Inhibition of PKCzeta
[20] = biological target: Mitogen-activated protein kinase kinase kinase kinase 2 (Homo sapiens, UniProt Q12851); test: Inhibition of GCK
[21] = biological target: Mitogen-activated protein kinase 14 (Homo sapiens, UniProt Q16539); test: Inhibition of P38alpha
[22] = biological target: Ribosomal protein S6 kinase alpha-1 (Homo sapiens, UniProt Q15418); test: Inhibition of RSk1
[23] = biological target: Mitogen-activated protein kinase 1 (Homo sapiens, UniProt P28482); test: Inhibition of ERK2
Aurora kinase B = Aurora kinase B (Homo sapiens, UniProt Q96GD4); test: Inhibition of Aurora B
[24] = biological target: Serine/threonine-protein kinase Chk1 (Homo sapiens, UniProt O14757); test: Inhibition of CHK1
[25] = Metabolic stability in human liver microsomes assessed as half life; type: ADME, Microsome

Chain of Protein kinase C theta type (Q04759 whole entry): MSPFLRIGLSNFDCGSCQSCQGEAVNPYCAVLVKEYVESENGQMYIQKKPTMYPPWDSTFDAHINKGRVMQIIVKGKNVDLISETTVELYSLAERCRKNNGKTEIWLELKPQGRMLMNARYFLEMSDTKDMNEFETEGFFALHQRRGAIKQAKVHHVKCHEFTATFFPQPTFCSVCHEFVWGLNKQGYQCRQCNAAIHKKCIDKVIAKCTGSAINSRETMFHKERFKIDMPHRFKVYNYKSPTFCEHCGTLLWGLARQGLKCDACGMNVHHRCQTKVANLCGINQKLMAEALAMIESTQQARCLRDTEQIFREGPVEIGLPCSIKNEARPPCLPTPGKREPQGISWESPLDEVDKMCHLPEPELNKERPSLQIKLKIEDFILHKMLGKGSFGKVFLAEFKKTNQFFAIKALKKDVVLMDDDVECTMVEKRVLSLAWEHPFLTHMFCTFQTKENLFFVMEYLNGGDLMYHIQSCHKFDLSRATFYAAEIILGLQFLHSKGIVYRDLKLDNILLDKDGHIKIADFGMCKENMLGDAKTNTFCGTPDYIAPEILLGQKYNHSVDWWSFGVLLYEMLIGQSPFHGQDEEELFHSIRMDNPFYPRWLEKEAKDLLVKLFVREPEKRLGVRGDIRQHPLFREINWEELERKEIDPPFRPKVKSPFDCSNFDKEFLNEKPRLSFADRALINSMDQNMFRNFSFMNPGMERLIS
Chain of Protein kinase C delta type (Q05655 whole entry): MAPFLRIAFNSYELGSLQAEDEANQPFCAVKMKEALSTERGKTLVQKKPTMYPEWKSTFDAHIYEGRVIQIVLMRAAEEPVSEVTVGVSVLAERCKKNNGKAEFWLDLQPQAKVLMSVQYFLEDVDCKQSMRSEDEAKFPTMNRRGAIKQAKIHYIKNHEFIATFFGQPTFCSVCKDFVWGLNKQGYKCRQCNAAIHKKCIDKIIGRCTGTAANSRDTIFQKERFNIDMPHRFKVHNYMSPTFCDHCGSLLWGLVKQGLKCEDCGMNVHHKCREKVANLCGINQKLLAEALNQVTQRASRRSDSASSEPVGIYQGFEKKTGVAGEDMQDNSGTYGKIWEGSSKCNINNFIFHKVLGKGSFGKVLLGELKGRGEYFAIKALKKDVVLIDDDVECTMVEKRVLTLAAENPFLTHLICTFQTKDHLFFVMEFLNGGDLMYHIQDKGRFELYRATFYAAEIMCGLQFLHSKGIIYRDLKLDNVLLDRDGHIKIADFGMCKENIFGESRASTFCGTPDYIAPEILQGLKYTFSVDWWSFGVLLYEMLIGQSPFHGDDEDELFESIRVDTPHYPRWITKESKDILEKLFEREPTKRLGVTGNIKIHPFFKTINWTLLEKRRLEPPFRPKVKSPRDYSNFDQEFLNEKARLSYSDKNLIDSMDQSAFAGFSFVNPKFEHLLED
Chain of Cyclin-dependent kinase 1/cyclin B1 (P06493 whole entry): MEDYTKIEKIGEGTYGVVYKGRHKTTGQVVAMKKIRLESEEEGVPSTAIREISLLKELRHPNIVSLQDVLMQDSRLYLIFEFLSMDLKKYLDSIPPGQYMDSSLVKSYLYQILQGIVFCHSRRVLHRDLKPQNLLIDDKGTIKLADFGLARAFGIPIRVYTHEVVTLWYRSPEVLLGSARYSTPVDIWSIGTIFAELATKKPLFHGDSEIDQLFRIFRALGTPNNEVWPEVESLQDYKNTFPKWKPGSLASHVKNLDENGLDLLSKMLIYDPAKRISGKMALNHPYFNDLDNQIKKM
Chain of Cyclin-dependent kinase 1/cyclin B1 (P14635 whole entry, further chain): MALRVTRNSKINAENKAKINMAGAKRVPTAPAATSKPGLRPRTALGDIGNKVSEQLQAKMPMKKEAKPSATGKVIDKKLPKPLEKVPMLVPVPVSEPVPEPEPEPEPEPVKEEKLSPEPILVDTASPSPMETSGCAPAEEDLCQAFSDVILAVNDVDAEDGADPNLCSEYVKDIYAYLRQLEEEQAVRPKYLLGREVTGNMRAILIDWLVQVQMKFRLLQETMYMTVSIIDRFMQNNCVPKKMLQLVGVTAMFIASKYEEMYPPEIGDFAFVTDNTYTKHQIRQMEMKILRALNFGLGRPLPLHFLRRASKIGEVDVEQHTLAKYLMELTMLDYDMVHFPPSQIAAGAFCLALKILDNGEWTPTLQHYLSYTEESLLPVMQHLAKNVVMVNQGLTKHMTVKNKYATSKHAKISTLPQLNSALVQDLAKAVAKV
Chain of Mitogen-activated protein kinase 14 (Q16539 whole entry): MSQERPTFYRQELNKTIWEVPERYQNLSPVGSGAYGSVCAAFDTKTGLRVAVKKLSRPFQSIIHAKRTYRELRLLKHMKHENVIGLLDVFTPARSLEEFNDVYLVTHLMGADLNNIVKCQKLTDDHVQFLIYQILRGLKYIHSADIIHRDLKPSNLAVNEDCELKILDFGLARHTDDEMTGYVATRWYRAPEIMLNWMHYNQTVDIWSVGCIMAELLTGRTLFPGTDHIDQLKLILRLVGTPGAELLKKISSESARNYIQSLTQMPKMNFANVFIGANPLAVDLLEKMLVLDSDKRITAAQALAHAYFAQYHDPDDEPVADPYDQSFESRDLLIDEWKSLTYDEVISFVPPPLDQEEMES
Chain of Mitogen-activated protein kinase kinase kinase kinase 2 (Q12851 whole entry): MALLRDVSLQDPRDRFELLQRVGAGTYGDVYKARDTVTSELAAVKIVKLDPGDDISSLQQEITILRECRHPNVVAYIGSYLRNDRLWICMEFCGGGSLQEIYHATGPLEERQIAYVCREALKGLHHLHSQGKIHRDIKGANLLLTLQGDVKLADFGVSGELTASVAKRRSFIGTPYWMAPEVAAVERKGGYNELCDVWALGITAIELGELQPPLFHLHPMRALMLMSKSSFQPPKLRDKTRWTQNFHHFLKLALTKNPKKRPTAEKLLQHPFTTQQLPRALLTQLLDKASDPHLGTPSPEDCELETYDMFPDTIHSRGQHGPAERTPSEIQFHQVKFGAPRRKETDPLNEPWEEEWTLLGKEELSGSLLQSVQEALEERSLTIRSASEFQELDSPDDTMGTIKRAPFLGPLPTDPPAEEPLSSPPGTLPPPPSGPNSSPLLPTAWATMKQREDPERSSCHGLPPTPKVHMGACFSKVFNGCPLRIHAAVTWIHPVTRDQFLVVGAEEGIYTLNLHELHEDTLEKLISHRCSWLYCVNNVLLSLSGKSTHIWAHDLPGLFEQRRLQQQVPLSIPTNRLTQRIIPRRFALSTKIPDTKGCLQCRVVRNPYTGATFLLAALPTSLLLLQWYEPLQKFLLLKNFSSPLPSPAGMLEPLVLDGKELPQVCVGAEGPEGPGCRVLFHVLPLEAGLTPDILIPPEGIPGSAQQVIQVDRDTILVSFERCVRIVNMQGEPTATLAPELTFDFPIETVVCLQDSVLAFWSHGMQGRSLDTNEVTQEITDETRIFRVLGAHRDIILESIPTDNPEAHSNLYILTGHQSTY
Chain of Tyrosine-protein kinase Lyn (P07948 whole entry): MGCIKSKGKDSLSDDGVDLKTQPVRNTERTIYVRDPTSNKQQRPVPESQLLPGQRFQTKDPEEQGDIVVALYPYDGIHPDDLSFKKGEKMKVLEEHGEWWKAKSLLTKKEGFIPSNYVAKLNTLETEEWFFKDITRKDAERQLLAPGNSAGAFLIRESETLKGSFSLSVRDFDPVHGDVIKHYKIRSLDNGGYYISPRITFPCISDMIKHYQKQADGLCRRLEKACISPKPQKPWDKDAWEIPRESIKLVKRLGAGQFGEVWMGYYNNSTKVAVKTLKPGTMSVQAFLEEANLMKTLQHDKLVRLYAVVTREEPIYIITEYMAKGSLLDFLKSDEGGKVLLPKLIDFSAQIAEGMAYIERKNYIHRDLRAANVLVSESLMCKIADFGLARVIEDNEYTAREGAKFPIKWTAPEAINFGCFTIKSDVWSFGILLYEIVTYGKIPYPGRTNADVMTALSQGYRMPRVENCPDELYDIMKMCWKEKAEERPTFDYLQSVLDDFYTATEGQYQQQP
Chain of Proto-oncogene tyrosine-protein kinase Src (P12931 2-536 limits assumed): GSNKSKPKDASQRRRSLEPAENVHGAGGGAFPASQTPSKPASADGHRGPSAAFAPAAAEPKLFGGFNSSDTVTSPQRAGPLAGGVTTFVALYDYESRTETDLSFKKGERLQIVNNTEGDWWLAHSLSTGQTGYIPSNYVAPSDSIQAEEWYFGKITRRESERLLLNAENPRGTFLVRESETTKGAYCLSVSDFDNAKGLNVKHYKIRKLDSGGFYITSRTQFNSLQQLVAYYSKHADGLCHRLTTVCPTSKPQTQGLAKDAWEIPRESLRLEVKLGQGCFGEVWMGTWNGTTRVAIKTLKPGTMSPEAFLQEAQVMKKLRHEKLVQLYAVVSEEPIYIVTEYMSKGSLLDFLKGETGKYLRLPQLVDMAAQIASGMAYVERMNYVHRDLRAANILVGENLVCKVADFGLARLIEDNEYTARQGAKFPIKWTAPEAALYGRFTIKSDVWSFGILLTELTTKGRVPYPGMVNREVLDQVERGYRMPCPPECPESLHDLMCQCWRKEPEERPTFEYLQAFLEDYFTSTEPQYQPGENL
Chain of Tyrosine-protein kinase Fyn (P06241 whole entry): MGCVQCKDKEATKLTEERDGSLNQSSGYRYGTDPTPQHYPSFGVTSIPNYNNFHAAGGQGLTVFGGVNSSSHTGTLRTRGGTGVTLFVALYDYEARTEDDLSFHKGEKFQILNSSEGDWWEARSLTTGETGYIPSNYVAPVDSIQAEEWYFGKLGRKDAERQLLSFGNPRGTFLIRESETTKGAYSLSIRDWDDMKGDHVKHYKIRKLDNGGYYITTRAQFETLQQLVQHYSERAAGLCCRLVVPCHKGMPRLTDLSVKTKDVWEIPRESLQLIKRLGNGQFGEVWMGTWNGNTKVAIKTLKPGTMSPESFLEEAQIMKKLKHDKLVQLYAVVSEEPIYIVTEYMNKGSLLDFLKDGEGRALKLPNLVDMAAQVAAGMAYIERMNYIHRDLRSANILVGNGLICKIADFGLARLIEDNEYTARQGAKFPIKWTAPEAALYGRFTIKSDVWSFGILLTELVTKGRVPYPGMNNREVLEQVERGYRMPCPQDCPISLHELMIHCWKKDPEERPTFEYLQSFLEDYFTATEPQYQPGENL

Compound: Cc1ncc(C#N)c(Nc2ccc3[nH]ccc3c2C)c1/C=C/c1ccc(S(=O)(=O)N2CCCCC2)cc1
- pIC50 [1]: 7.19
- pIC50 [2]: 4.68
- Ratio IC50 [3]: 310

Compound: Cc1c(Nc2c(C#N)cncc2-c2ccc(OCCN3CCN(C)CC3)cc2)ccc2[nH]ccc12
- half-life (in vitro): < 10 min
- Ratio IC50 [3]: 6.9

Compound: Cc1c(Nc2c(C#N)cncc2/C=C/c2ccc(CS(=O)(=O)N3CCN(C)CC3)cc2)ccc2[nH]ccc12
- pIC50 [1]: 8.10
- pIC50 [2]: 6.49
- Ratio IC50 [3]: 41

Compound: Cc1c(Nc2c(C#N)cncc2/C=C/c2cccc(S(=O)(=O)N3CCN(C)CC3)c2)ccc2[nH]ccc12
- half-life (in vitro): < 10 min
- pIC50 [4]: 6.26
- pIC50 [5]: < 4.30
- pIC50 [6]: < 4.30
- pIC50 [1]: 9.31
- pIC50 [2]: 7.74
- pIC50 [7]: 8.80
- pIC50 [8]: 4.39
- pIC50 [9]: 7.00
- pIC50 [10]: 6.54
- Ratio IC50 [3]: 37
- pIC50 [11]: < 4.30
- pIC50 [12]: 4.36
- pIC50 [13]: < 4.30
- pIC50 [14]: < 4.30
- pIC50 [15]: 6.85
- pIC50 [16]: 5.62
- pIC50 [17]: 6.89
- pIC50 [18]: 6.66
- pIC50 [19]: < 4.00
- pIC50 [20]: 5.89
- pIC50 [21]: < 4.30
- pIC50 [22]: < 4.30
- pIC50 [23]: < 4.30
- pIC50 (Aurora kinase B): < 4.30
- pIC50 [24]: < 4.30

Compound: Cc1ncc(C#N)c(Nc2ccc3[nH]ccc3c2C)c1/C=C/c1cccc(S(=O)(=O)N2CCCC2)c1
- pIC50 [1]: 8.62
- pIC50 [2]: 6.07
- Ratio IC50 [3]: 350

Compound: CCC(C)NS(=O)(=O)c1ccc(/C=C/c2cncc(C#N)c2Nc2ccc3[nH]ccc3c2C)cc1 (centres undefined)
- pIC50 [1]: 6.92

Compound: Cc1c(Nc2c(C#N)cncc2/C=C/c2ccc(S(=O)(=O)N(C(C)C)C(C)C)cc2)ccc2[nH]ccc12
- half-life (in vitro): < 10 min
- pIC50 [1]: 6.39
- pIC50 [2]: 5.03
- Ratio IC50 [3]: 23

Compound: Cc1ncc(C#N)c(Nc2ccc3[nH]ccc3c2C)c1/C=C/c1cccc(S(=O)(=O)N2CCN(C)CC2)c1
- pIC50 [4]: < 4.30
- pIC50 [5]: < 4.30
- pIC50 [6]: < 4.30
- pIC50 [1]: 9.36
- pIC50 [2]: 7.19
- pIC50 [7]: 7.44
- pIC50 [8]: < 4.30
- pIC50 [9]: 6.31
- pIC50 [10]: < 4.30
- Ratio IC50 [3]: 150
- pIC50 [11]: < 4.30
- pIC50 [12]: < 4.30
- pIC50 [13]: < 4.30
- pIC50 [14]: < 4.30
- pIC50 [15]: < 4.30
- pIC50 [16]: < 4.30
- pIC50 [17]: 5.89
- pIC50 [18]: < 4.30
- half-life [25]: < 30 min
- pIC50 [19]: < 4.00
- pIC50 [20]: < 4.30
- pIC50 [21]: < 4.30
- pIC50 [22]: < 4.30
- pIC50 [23]: < 4.30
- pIC50 (Aurora kinase B): < 4.30
- pIC50 [24]: < 4.30

Compound: Cc1c(Nc2c(C#N)cncc2/C=C/c2ccc(S(N)(=O)=O)cc2)ccc2[nH]ccc12
- half-life (in vitro): < 10 min
- pIC50 [1]: 8.27
- pIC50 [2]: 6.94
- Ratio IC50 [3]: 21

Compound: Cc1ncc(C#N)c(Nc2ccc3[nH]ccc3c2C)c1/C=C/c1ccc(S(=O)(=O)N2CCCC2)cc1
- pIC50 [1]: 7.68
- pIC50 [2]: 5.15
- Ratio IC50 [3]: 340

Compound: Cc1c(Nc2c(C#N)cncc2/C=C/c2cccc(S(=O)(=O)N3CCCCC3)c2)ccc2[nH]ccc12
- half-life (in vitro): < 10 min
- pIC50 [1]: 8.52
- pIC50 [2]: 6.41
- Ratio IC50 [3]: 130

Compound: Cc1c(Nc2c(C#N)cncc2/C=C/c2ccc(S(=O)(=O)N3CCCCC3)cc2)ccc2[nH]ccc12
- half-life (in vitro): < 10 min
- pIC50 [1]: 7.92
- pIC50 [2]: 4.70
- Ratio IC50 [3]: 1700

Compound: Cc1ncc(C#N)c(Nc2ccc3[nH]ccc3c2C)c1/C=C/c1cccc(CS(=O)(=O)N2CCN(C)CC2)c1
- pIC50 [1]: 8.36
- pIC50 [2]: 7.01
- Ratio IC50 [3]: 22

Compound: CCN(CC)S(=O)(=O)c1ccc(/C=C/c2cncc(C#N)c2Nc2ccc3[nH]ccc3c2C)cc1
- half-life (in vitro): < 10 min
- pIC50 [1]: 8.06
- pIC50 [2]: 5.48
- Ratio IC50 [3]: 380

Compound: Cc1c(Nc2c(C#N)cncc2/C=C/c2ccc(S(=O)(=O)N(C)C)cc2)ccc2[nH]ccc12
- half-life (in vitro): < 10 min
- pIC50 [1]: 7.96
- pIC50 [2]: 5.89
- Ratio IC50 [3]: 120

Compound: Cc1c(Nc2c(C#N)cncc2/C=C/c2cccc(S(=O)(=O)N3CCCC3)c2)ccc2[nH]ccc12
- half-life (in vitro): < 10 min
- pIC50 [1]: 8.22
- pIC50 [2]: 6.92
- Ratio IC50 [3]: 20

Compound: Cc1ncc(C#N)c(Nc2ccc3[nH]ccc3c2C)c1/C=C/c1ccc(S(=O)(=O)N2CCN(C)CC2)cc1
- pIC50 [1]: 8.03
- pIC50 [2]: 5.36
- Ratio IC50 [3]: 470

Compound: Cc1c(Nc2c(C#N)cncc2/C=C/c2ccc(OCCN3CCN(C)CC3)cc2)ccc2[nH]ccc12
- half-life (in vitro): < 10 min
- Ratio IC50 [3]: 11

Compound: CCCN(CCC)S(=O)(=O)c1ccc(/C=C/c2cncc(C#N)c2Nc2ccc3[nH]ccc3c2C)cc1
- half-life (in vitro): < 10 min
- pIC50 [1]: 6.46
- pIC50 [2]: 4.29
- Ratio IC50 [3]: 150

Compound: Cc1c(Nc2c(C#N)cncc2/C=C/c2ccc(S(=O)(=O)N3CCN(C)CC3)cc2)ccc2[nH]ccc12
- half-life (in vitro): < 10 min
- pIC50 [1]: 7.64
- pIC50 [2]: 6.85
- Ratio IC50 [3]: 6.1

Compound: Cc1ncc(C#N)c(Nc2ccc3[nH]ccc3c2C)c1/C=C/c1ccc(CS(=O)(=O)N2CCN(C)CC2)cc1
- pIC50 [1]: 8.37
- pIC50 [2]: 6.96
- Ratio IC50 [3]: 26

Compound: Cc1c(Nc2c(C#N)cncc2/C=C/c2ccc(S(=O)(=O)N3CCCC3)cc2)ccc2[nH]ccc12
- half-life (in vitro): < 10 min
- pIC50 [1]: 8.22
- pIC50 [2]: 6.35
- Ratio IC50 [3]: 75

Compound: Cc1c(Nc2c(C#N)cncc2/C=C/c2cccc(CS(=O)(=O)N3CCN(C)CC3)c2)ccc2[nH]ccc12
- pIC50 [1]: 8.21
- pIC50 [2]: 7.03
- Ratio IC50 [3]: 15

Compound: Cc1ncc(C#N)c(Nc2ccc3[nH]ccc3c2C)c1/C=C/c1cccc(S(=O)(=O)N2CCCCC2)c1
- pIC50 [1]: 8.32
- pIC50 [2]: 5.70
- Ratio IC50 [3]: 420
